Measured values published in paper PMC3426442 (Bioorganic & medicinal chemistry letters, 2012).

Legend:
[1] = system: NL4-3 V370A; settings: V370A versus NL4-3, single cycle infection assay
[2] = in vitro; settings: human, microsomes
[3] = in vitro; compared to A43D (A43D compared to bevirimat)
[4] = ref not given; cited from earlier work

Row | SMILES | times less potent against the resistant variant [1] | microsomal CLint [2] | microsomal / metabolic stability in words [3] | half-life in vivo [4]
1 | Cc1cn([C@H]2C[C@H](N=[N+]=[N-])[C@@H](CO)O2)c(=O)[nH]c1=O [AZT, 3′-azido-3′-deoxythymidine] | 2 times |  |  | 
2 | C=C(C)[C@@H]1CC[C@]2(C(=O)NCCCCCCCNC(C)=O)CC[C@]3(C)[C@H](CC[C@@H]4[C@@]5(C)CC[C@H](O)C(C)(C)[C@@H]5CC[C@]43C)[C@@H]12 [Compound 1] |  | 272 µL/min/mg | poor | 
3 | C=C(C)[C@@H]1CC[C@]2(C(=O)NCCCCCCCNC(=O)[C@H](CCC(N)=O)NC(=O)OC(C)(C)C)CC[C@]3(C)[C@H](CC[C@@H]4[C@@]5(C)CC[C@H](O)C(C)(C)[C@@H]5CC[C@]43C)[C@@H]12 [Compound 2] |  | 366 µL/min/mg |  | 
4 | C=C(C)[C@@H]1CC[C@]2(C(=O)NCCCCCCCCC(=O)N[C@@H](CCC(N)=O)C(=O)OC)CC[C@]3(C)[C@H](CC[C@@H]4[C@@]5(C)CC[C@H](O)C(C)(C)[C@@H]5CC[C@]43C)[C@@H]12 [Compound 13] |  | 230 µL/min/mg | improved metabolic stability | 
5 | C=C(C)[C@@H]1CC[C@]2(C(=O)NCCCCCCCCC(=O)N[C@@H](CCC(N)=O)C(=O)OCc3ccccc3)CC[C@]3(C)[C@H](CC[C@@H]4[C@@]5(C)CC[C@H](O)C(C)(C)[C@@H]5CC[C@]43C)[C@@H]12 [Compound 15] |  | 169 µL/min/mg | improved metabolic stability | 
6 | COC(=O)[C@H](CCC(N)=O)NC(=O)CCCCCCCCNC(=O)[C@]12CC[C@@H](C(C)C)[C@@H]1[C@H]1CC[C@@H]3[C@@]4(C)CC[C@H](O)C(C)(C)[C@@H]4CC[C@@]3(C)[C@]1(C)CC2 [Compound 38] |  | 219 µL/min/mg | improved metabolic stability | 
7 | CC(C)[C@@H]1CC[C@]2(C(=O)NCCCCCCCCC(=O)N[C@@H](CCC(N)=O)C(=O)O)CC[C@]3(C)[C@H](CC[C@@H]4[C@@]5(C)CC[C@H](O)C(C)(C)[C@@H]5CC[C@]43C)[C@@H]12 [Compound 39] |  | 280 µL/min/mg |  | 
8 | CC(C)(C)c1ccc(C(O)CCCN2CCC(C(O)(c3ccccc3)c3ccccc3)CC2)cc1 (stereo not drawn) [Terfenadine] |  |  |  | around 3.5 h
